From patent US6777412B2 (priority 1990, dated 2004)
Like-named read-outs stand apart in the source and are kept apart here. Marks after values point to notes of the source that are not given here.

Columns and labels:
Assay type in all cases: in vivo
Erysiphe graminis hordei = experiment: Foliar fungal disease test on plants: Erysiphe graminis hordei (Egh)
Protocol: (§1) The compounds were tested against a variety of foliar fungal diseases of plants. The technique employed was as follows.
(§2) The plants were grown in John Innes Potting Compost (No.1 or 2) in 4 cm diameter minipots. The test compounds were formulated either by bead milling with aqueous Dispersol T or as a solution in acetone or acetone/ethanol which was diluted to the required concentration immediately before use. For the foliage diseases, the formulations (100 ppm active ingredient except where otherwise indicated) were sprayed onto the foliage and applied to the roots of the plants in the soil. The sprays were applied to maximum retention and the root drenches to a final concentration equivalent to approximately 40 ppm a.i. in dry soil. Tween 20, to give a final concentration of 0.05%, was added when the sprays were applied to cereals.
(§3) For most of the tests the compound was applied to the soil (roots) and to the foliage (by spraying) one or two days before the plant was inoculated with the disease. An exception was the test on Erysiphe graminis in which the plants were inoculated 24 hours before treatment. Foliar pathogens were applied by spray as spore suspensions onto the leaves of test plants. After inoculation, the plants were put into an appropriate environment to allow infection to proceed and then incubated until the disease was ready for assessment. The period between inoculation and assessment varied from four to fourteen days according to the disease and environment.
(§4) The disease control vas recorded by the following grading:
(§5) 3=trace-5% of disease on untreated plants
(§6) 2=6-25% of disease on untreated plants
(§7) 1=26-59% of disease on untreated plants
(§8) 0=60-100% of disease on untreated plants
Egh Erysiphe graminis hordei

Venturia inaequalis = experiment: Foliar fungal disease test on plants: Venturia inaequalis (Vi)
Protocol: as §1, §2, §3, §4, §5, §6, §7, §8

Puccinia recondita = experiment: Foliar fungal disease test on plants: Puccinia recondita (Pr)
Protocol: as §1, §2, §3, §4, §5, §6, §7, §8

Pyricularia oryzae = tested on: Pyricularia oryzae
Plasmopara viticola = experiment: Foliar fungal disease test on plants: Plasmopara viticola (Pv)
Protocol: as §1, §2, §3, §4, §5, §6, §7, §8

[1] = tested on: Phytophthora infestans lycopersici
[2] = 100 ppm active ingredient foliar spray plus root drench (approx. 40 ppm a.i. in dry soil), plants inoculated 24 hours before treatment
[3] = 100 ppm active ingredient foliar spray plus root drench (approx. 40 ppm a.i. in dry soil), one or two days before inoculation

SMILES | disease control grading, Egh (Erysiphe graminis hordei) (Erysiphe graminis hordei; [2]) | disease control grading, Vi (Venturia inaegualis) (Venturia inaequalis; [3]) | disease control grading, Pr (Puccinia recondita) (Puccinia recondita; [3]) | disease control grading, Po (Pyricularia oryzae) (Pyricularia oryzae; [3]) | disease control grading, Pv (Plasmopara viticola) (Plasmopara viticola; [3]) | disease control grading, Pil (Phytophthora infestans lycopersici) [1, 3] | disease control grading, Egh (Erysiphe graminis hordei) (Erysiphe graminis hordei; 10 ppm foliar application only) | disease control grading, Vi (Venturia inaegualis) (Venturia inaequalis; 10 ppm foliar application only) | disease control grading, Pr (Puccinia recondita) (Puccinia recondita; 10 ppm foliar application only) | disease control grading, Po (Pyricularia oryzae) (Pyricularia oryzae; 10 ppm foliar application only) | disease control grading, Pv (Plasmopara viticola) (Plasmopara viticola; 10 ppm foliar application only) | disease control grading, Pil (Phytophthora infestans lycopersici) ([1]; 10 ppm foliar application only)
CO/C=C(/C(=O)OC)c1ccccc1Oc1cc(Sc2ccccc2)ncn1 [1 of Table I] | 4 (4=no disease) | 4 (4=no disease) | 4 (4=no disease) | 4 (4=no disease) | 4 (4=no disease) | 4 (4=no disease) |  |  |  |  |  | 
CO/C=C(/C(=O)OC)c1ccccc1Oc1cc([S+]([O-])c2ccccc2)ncn1 (stereo not shown) [2 of Table I] |  |  |  |  |  |  | 0^a (0=60-100% of disease on untreated plants) | 0^a (0=60-100% of disease on untreated plants) | 0^a (0=60-100% of disease on untreated plants) | 0^a (0=60-100% of disease on untreated plants) | 4^a (4=no disease) | 0^a (0=60-100% of disease on untreated plants)
CO/C=C(/C(=O)OC)c1ccccc1Oc1cc(S(=O)(=O)c2ccccc2)ncn1 [3 of Table I] | 0 (0=60-100% of disease on untreated plants) | 4 (4=no disease) | 3 (3=trace-5% of disease on untreated plants) | 2 (2=6-25% of disease on untreated plants) | 4 (4=no disease) | 0 (0=60-100% of disease on untreated plants) |  |  |  |  |  | 
CO/C=C(/C(=O)OC)c1ccccc1Oc1cc(OCCc2ccccc2)ncn1 [96 of Table I] | 4 (4=no disease) |  | 4 (4=no disease) | 3 (3=trace-5% of disease on untreated plants) | 4 (4=no disease) | 4 (4=no disease) |  |  |  |  |  | 
CO/C=C(/C(=O)OC)c1ccccc1Oc1cc(Sc2ccccc2C#N)ncn1 [134 of Table I] | 4 (4=no disease) |  | 4 (4=no disease) | 2 (2=6-25% of disease on untreated plants) | 4 (4=no disease) |  |  |  |  |  |  | 
CO/C=C(/C(=O)OC)c1ccccc1Oc1cc([S+]([O-])c2ccccn2)ncn1 (stereo not shown) [355 of Table I] | 4 (4=no disease) | 4 (4=no disease) | 0 (0=60-100% of disease on untreated plants) |  | 0 (0=60-100% of disease on untreated plants) | 0 (0=60-100% of disease on untreated plants) |  |  |  |  |  | 
CO/C=C(/C(=O)OC)c1ccccc1Oc1cc(OCCc2ccccc2C#N)ncn1 [357 of Table I] | 4 (4=no disease) | 4 (4=no disease) | 4 (4=no disease) | 4 (4=no disease) | 4 (4=no disease) | 4 (4=no disease) |  |  |  |  |  | 
CO/C=C(/C(=O)OC)c1ccccc1Oc1cc(OCCc2ccccc2[N+](=O)[O-])ncn1 [358 of Table I] | 4 (4=no disease) | 4 (4=no disease) | 4 (4=no disease) | 4 (4=no disease) | 4 (4=no disease) | 4 (4=no disease) |  |  |  |  |  | 
CO/C=C(/C(=O)OC)c1ccccc1Oc1cc(OCCCc2ccccc2)ncn1 [360 of Table I] | 4 (4=no disease) | 4 (4=no disease) | 4 (4=no disease) | 4 (4=no disease) | 4 (4=no disease) | 4 (4=no disease) |  |  |  |  |  | 
CO/C=C(/C(=O)OC)c1ccccc1Oc1cc(OCCCc2ccccc2[N+](=O)[O-])ncn1 [361 of Table I] | 4 (4=no disease) | 4 (4=no disease) | 4 (4=no disease) | 4 (4=no disease) | 4 (4=no disease) | 4 (4=no disease) |  |  |  |  |  | 
CO/C=C(/C(=O)OC)c1ccccc1Oc1cc(OCCc2ccccc2C(F)(F)F)ncn1 [363 of Table I] | 4 (4=no disease) | 4 (4=no disease) | 4 (4=no disease) | 4 (4=no disease) | 4 (4=no disease) | 4 (4=no disease) |  |  |  |  |  | 
CO/C=C(/C(=O)OC)c1ccccc1Oc1cc(OCCc2ccccc2C)ncn1 [364 of Table I] | 4 (4=no disease) | 4 (4=no disease) | 4 (4=no disease) | 4 (4=no disease) | 4 (4=no disease) | 4 (4=no disease) |  |  |  |  |  | 
CO/C=C(/C(=O)OC)c1ccccc1Oc1cc(OCCc2ccccc2OC)ncn1 [365 of Table I] | 4 (4=no disease) | 4 (4=no disease) | 4 (4=no disease) | 4 (4=no disease) | 4 (4=no disease) | 4 (4=no disease) |  |  |  |  |  | 
CO/C=C(/C(=O)OC)c1ccccc1Oc1cc(OCCc2ccccc2F)ncn1 [366 of Table I] | 4 (4=no disease) | 4 (4=no disease) | 4 (4=no disease) | 4 (4=no disease) | 4 (4=no disease) | 4 (4=no disease) |  |  |  |  |  | 
CO/C=C(/C(=O)OC)c1ccccc1Oc1cc(NC(=S)c2ccccc2O)ncn1 [367 of Table I] |  |  |  |  |  |  | 3^a (3=trace-5% of disease on untreated plants) | 2^a (2=6-25% of disease on untreated plants) | 4^a (4=no disease) | 0^a (0=60-100% of disease on untreated plants) | 4^a (4=no disease) | 0^a (0=60-100% of disease on untreated plants)
CO/C=C(/C(=O)OC)c1ccccc1Oc1cc(Nc2ccccc2O)ncn1 [379 of Table I] | 0 (0=60-100% of disease on untreated plants) |  | 3 (3=trace-5% of disease on untreated plants) | 0 (0=60-100% of disease on untreated plants) | 4 (4=no disease) | 0 (0=60-100% of disease on untreated plants) |  |  |  |  |  | 
